A short description of this data set: physchem. How it is done: Methomyl and oxamyl were added to various methanol:water solvent systems ranging from 100% CH3 OH to 40% CH3 OH:60% H2 O. The methomyl and oxamyl were dissolved separately or combined on a 1:1 weight ratio in the solvent systems at room temperature at a concentration exceeding the solubility limit at -6° C. Each sample was seeded with methomyl and/or oxamyl at -6° C. and allowed to crystallize until equilibrium was established. The supernatant liquid of each sample was assayed for methomyl and/or oxamyl by liquid chromatography.

In brackets after ≈: the same amount, converted by molar mass.

One may read the solubility as how much of the substance goes into solution per volume. The low end stands for a poorly soluble substance, the high end for a readily soluble substance. In the case of `CNC(=O)ON=C(C)SC` [Methomyl], the solubility stood at 62 mg/mL (≈ 382 mM) (40/60 ch3oh/h2o, Methomyl alone in solvent, alone, -6° C.); 188 mg/mL (≈ 1160 mM) (40/60 ch3oh/h2o, both actives in solvent: Methomyl, with oxamyl 1:1 wt., 40/60 CH3OH/H2O, -6° C.); 105 mg/mL (≈ 647 mM) (50/50 ch3oh/h2o, Methomyl alone in solvent, alone, -6° C.); 237 mg/mL (≈ 1460 mM) (50/50 ch3oh/h2o, both actives in solvent: Methomyl, with oxamyl 1:1 wt., 50/50 CH3OH/H2O, -6° C.); 155 mg/mL (≈ 956 mM) (60/40 ch3oh/h2o, Methomyl alone in solvent, alone, -6° C.); 355 mg/mL (≈ 2190 mM) (60/40 ch3oh/h2o, both actives in solvent: Methomyl, with oxamyl 1:1 wt., 60/40 CH3OH/H2O, -6° C.). In addition, the solubility reads like this: (70/30 ch3oh/h2o, Methomyl alone in solvent, alone, -6° C.) 208 mg/mL (≈ 1280 mM); (70/30 ch3oh/h2o, both actives in solvent: Methomyl, with oxamyl 1:1 wt., 70/30 CH3OH/H2O, -6° C.) 438 mg/mL (≈ 2700 mM); (80/20 ch3oh/h2o, Methomyl alone in solvent, alone, -6° C.) 263 mg/mL (≈ 1620 mM); (80/20 ch3oh/h2o, both actives in solvent: Methomyl, with oxamyl 1:1 wt., 80/20 CH3OH/H2O, -6° C.) 581 mg/mL (≈ 3580 mM); (90/10 ch3oh/h2o, Methomyl alone in solvent, alone, -6° C.) 299 mg/mL (≈ 1840 mM); (90/10 ch3oh/h2o, both actives in solvent: Methomyl, with oxamyl 1:1 wt., 90/10 CH3OH/H2O, -6° C.) 664 mg/mL (≈ 4090 mM). Where the note is “alone, 100/0 CH3OH/H2O, -6° C.”, the “Solubility, Methomyl alone in solvent” value came to 30.7 gms/100 gms. Besides, the “Solubility when dissolved together in the solvents taught” value (summary of Examples 2-7) is recorded as “increases in solubility occur”. For the same compound, the “Solubility, both actives in solvent: Methomyl” value (with oxamyl 1:1 wt., 100/0 CH3OH/H2O, -6° C.) is reported as 63.9 gms/100 gms.

(Values after patent publication US4032654A, “Water-soluble, liquid concentrates of S-methyl-[(methyl-carbamoyl)oxy]-thioacetimidate and methyl N', N'-dimethyl-N-[(methyl-carbamoyl)oxy]-1-thiooxamimidate” (priority 1975, dated 1977).)
